# Data as given in patent publication US11180504B2 (ORCHID PHARMA LTD., priority 2016, dated 2021).
# How the values were obtained:
# [1] = tested on: carbapenemase producing K. pneumoniae; assay: MIC by broth micro-dilution (CLSI), carbapenemase producing K. pneumoniae; format: cell-based, Klebsiella pneumoniae; conditions: Klebsiella pneumoniae, ATCCBAA1705, KPC-2 K. pneumoniae ATCC BAA-1705; read-out: MIC
# [2] = tested on: carbapenem sensitive Escherichia coli; assay: MIC by broth micro-dilution (CLSI), carbapenem sensitive E. coli; format: cell-based; conditions: Escherichia coli, ATCC25922, ESBL −ve E. coli ATCC25922; read-out: MIC
# [3] = tested on: methicillin-sensitive Staphylococcus aureus; assay: MIC by broth micro-dilution (CLSI), methicillin-sensitive S. aureus; format: cell-based; conditions: Staphylococcus aureus, ATCC 29213 / MSSA, MSSA S. aureus ATCC29213; read-out: MIC
# [4] = tested on: extended spectrum β lactamase (ESBL) SHV18 producing Klebsiella pneumoniae; assay: MIC by broth micro-dilution (CLSI), ESBL SHV18 producing K. pneumoniae; format: cell-based; conditions: Klebsiella pneumoniae, ATCC700603, 22 h, ESBL +ve (SHV-18) K. pneumoniae ATCC700603; read-out: MIC
# [5] = tested on: carbapenem sensitive Pseudomonas aeruginosa; assay: MIC by broth micro-dilution (CLSI), carbapenem sensitive P. aeruginosa; format: cell-based; conditions: Pseudomonas aeruginosa, ATCC27853, Meropenem susceptible P. aeruginosa ATCC27853; read-out: MIC
Structure (SMILES),MIC [1],MIC [2],MIC [3],MIC [4],MIC [5]
C[C@@H](NC(=O)C(F)F)[C@H]1C(=O)N2C(C(=O)O)=C(S[C@@H]3CN[C@H](C(=O)N4C[C@@H](N)C[C@H]4CN)C3)[C@H](C)[C@H]12 [Example 183],16 µg/mL,2 µg/mL,8 µg/mL,32 µg/mL,64 µg/mL
C[C@@H](NC(=O)C(F)F)[C@H]1C(=O)N2C(C(=O)O)=C(S[C@@H]3CN[C@H](C(=O)N4CC[C@H](NC=N)C4)C3)[C@H](C)[C@H]12 [Example 184],8 µg/mL,0.5 µg/mL,2 µg/mL,4 µg/mL,4 µg/mL
CNC[C@@H]1C[C@H](N)CN1C(=O)[C@@H]1C[C@H](SC2=C(C(=O)O)N3C(=O)[C@H]([C@@H](C)NC(=O)C(F)F)[C@H]3[C@H]2C)CN1 [Example 185],16 µg/mL,2 µg/mL,2 µg/mL,64 µg/mL,64 µg/mL
C[C@@H](NC(=O)C(F)F)[C@H]1C(=O)N2C(C(=O)O)=C(S[C@@H]3CN[C@H](C(=O)N4C[C@@H](N)C[C@H]4CO)C3)[C@H](C)[C@H]12 [Example 186],4 µg/mL,0.5 µg/mL,4 µg/mL,4 µg/mL,8 µg/mL
C[C@@H](Oc1ccon1)[C@H]1C(=O)N2C(C(=O)O)=C(S[C@@H]3CN[C@H](C(=O)N(C)C)C3)[C@H](C)[C@H]12 [Example 187],64 µg/mL,2 µg/mL,4 µg/mL,8 µg/mL,128 µg/mL
CNCC(=O)N[C@H](C)[C@H]1C(=O)N2C(C(=O)O)=C(S[C@@H]3CN[C@H](C(=O)N4CC(N)C4)C3)[C@H](C)[C@H]12 [Example 189],8 µg/mL,4 µg/mL,> 128 µg/mL,32 µg/mL,16 µg/mL
CNCC(=O)N[C@H](C)[C@H]1C(=O)N2C(C(=O)O)=C(S[C@@H]3CN[C@H](C(=O)N4CCC(N)CC4)C3)[C@H](C)[C@H]12 [Example 190],4 µg/mL,2 µg/mL,64 µg/mL,16 µg/mL,4 µg/mL
CNCC(=O)N[C@H](C)[C@H]1C(=O)N2C(C(=O)O)=C(S[C@@H]3CN[C@H](C(=O)N4C[C@@H](N)C[C@H]4CN)C3)[C@H](C)[C@H]12 [Example 191],8 µg/mL,8 µg/mL,64 µg/mL,32 µg/mL,32 µg/mL
CNCC(=O)N[C@H](C)[C@H]1C(=O)N2C(C(=O)O)=C(S[C@@H]3CN[C@H](C(=O)N4CC[C@@H](O)C4)C3)[C@H](C)[C@H]12 [Example 192],2 µg/mL,1 µg/mL,64 µg/mL,2 µg/mL,4 µg/mL
CNCC(=O)N[C@H](C)[C@H]1C(=O)N2C(C(=O)O)=C(S[C@@H]3CN[C@H](C(=O)N4CCC(NC(=O)CN)CC4)C3)[C@H](C)[C@H]12 [Example 193],4 µg/mL,4 µg/mL,64 µg/mL,8 µg/mL,8 µg/mL
C[C@@H](NC(=O)C(F)F)[C@H]1C(=O)N2C(C(=O)O)=C(S[C@@H]3CN[C@H](C(=O)N4C[C@H](N)[C@@H](N)C4)C3)[C@H](C)[C@H]12 [Example 194],16 µg/mL,2 µg/mL,8 µg/mL,8 µg/mL,16 µg/mL
C[C@@H](NC(=O)C(F)F)[C@H]1C(=O)N2C(C(=O)O)=C(S[C@@H]3CN[C@H](C(=O)N4CC[C@H](NC(=N)N)C4)C3)[C@H](C)[C@H]12 [Example 195],4 µg/mL,0.5 µg/mL,2 µg/mL,1 µg/mL,8 µg/mL
C[C@@H](NC(=O)C(F)F)[C@H]1C(=O)N2C(C(=O)O)=C(S[C@@H]3CN[C@H](C(=O)N4CC[C@H](NC(=O)CNC(=N)N)C4)C3)[C@H](C)[C@H]12 [Example 196],8 µg/mL,1 µg/mL,2 µg/mL,4 µg/mL,32 µg/mL
C[C@@H](NC(=O)CNC1CC1)[C@H]1C(=O)N2C(C(=O)O)=C(S[C@@H]3CN[C@H](C(=O)N4CC[C@@H](N)C4)C3)[C@H](C)[C@H]12 [Example 197],16 µg/mL,4 µg/mL,16 µg/mL,16 µg/mL,32 µg/mL
C[C@@H](NC(=O)C(F)F)[C@H]1C(=O)N2C(C(=O)O)=C(S[C@@H]3CN[C@H](C(=O)N4C[C@H](O)[C@@H](O)C4)C3)[C@H](C)[C@H]12 [Example 198],4 µg/mL,0.25 µg/mL,2 µg/mL,1 µg/mL,32 µg/mL
CNCC(=O)N[C@H](C)[C@H]1C(=O)N2C(C(=O)O)=C(S[C@@H]3CN[C@H](C(=O)N4CC[C@H](NC=N)C4)C3)[C@H](C)[C@H]12 [Example 199],2 µg/mL,1 µg/mL,32 µg/mL,4 µg/mL,4 µg/mL
